Read-outs that look alike come from different tables or passages of the source.
Columns and labels:
MDA-MB-436 = assay: Anti-proliferative activity (CellTiter-Glo, 7 days), MDA-MB-436; assay type: cell-based, human; conditions: for IC50: Homo sapiens, MDA-MB-436, 168 h, BRCA1-mutated, 7 days, read-out: MDA-MB-436 IC50; for BRCA1 mutation/WT selectivity fold: MDA-MB-231 vs MDA-MB-436
PARP1 [1] = biological target: T1, PARP1 (Homo sapiens, UniProt P09874); assay: Inhibition of PARP1 enzyme activity (chemiluminescence); assay type: biochemical; conditions: for PARP1/2 selectivity fold: PARP2 vs PARP1
T1 construct: purchased BPS 80501

PARP2 [2] = biological target: T2, PARP2 (Homo sapiens, UniProt Q9UGN5); assay: Inhibition of PARP2 enzyme activity (chemiluminescence); assay type: biochemical
T2 construct: purchased BPS 80502

MDA-MB-231 = assay: Anti-proliferative activity (CellTiter-Glo, 7 days), MDA-MB-231; assay type: cell-based, human; conditions: for inhibition on cell proliferation at the highest concentration: 10 µM; for IC50: Homo sapiens
DLD-1 BRCA2^-/- = assay: Anti-proliferative activity (CellTiter-Glo, 7 days), DLD-1 BRCA2-/-; assay type: cell-based, human; conditions: for BRCA2 mutation/WT selectivity fold: DLD-1 WT vs DLD-1 BRCA2^-/-; for IC50: Homo sapiens, DLD-1, 168 h, BRCA2-mutated, 7 days
A549 PARP1-KO cell lines = assay: Cellular PARylation inhibition, high-content imaging, PARP1-KO; assay type: cell-based; conditions: for inhibition on the enzyme activity at the highest concentration: A549 PARP1-KO cell lines, 40 µM; for IC50: Homo sapiens, A549, PARylation at the cellular level
DLD-1 WT = assay: Anti-proliferative activity (CellTiter-Glo, 7 days), DLD-1 WT; assay type: cell-based, human; conditions: for inhibition on cell proliferation at the highest concentration: BRCA2-normal DLD-1 cell line, 10 µM; for IC50: Homo sapiens, DLD-1, 168 h, BRCA2-normal, 7 days
Experimental: The anti-proliferation experiment of the compounds on tumour cells adopted the most widely used ATP concentration-based detection method at present. MDA-MB-231 and MDA-MB-436 cell lines were obtained from ATCC, DLD-1 human colourectal adenocarcinoma epithelial cells and DLD-1 BRCA2^-/- cells were obtained from Horizon, and the cells were revived. After the cells were stable, the cells were collected. When the viable cell count exceeded 90%, 450-500 cells were seeded into a 384-well plate. The next day, the example compounds with serially diluted concentrations were added. Only buffer was added to the Max well, and 50 µM AZD2281 was added to the Min well. The plate was incubated for 7 days, and on the eighth day, CellTiter-Glo® reagent (Promega, G7573) was added. The plate was incubated at room temperature for 30 minutes, and the values were read on Envision (PE). The inhibition rate was calculated using the fluorescence values from the Max and Min wells, and the dose-response curve was fitted using the analysis software GraphPad Prism 5 to obtain the IC50 value of each compound for the enzyme activity.

A549 WT = assay: Cellular PARylation inhibition, high-content imaging, A549 WT; assay type: cell-based; conditions: Homo sapiens, PARylation at the cellular level
Experimental: The inhibitory effect of the compounds on PARP1/PARP2 enzyme activity at the cellular level was detected using high-content imaging. A549 WT, PARP1-KO and PARP2-KO cell lines were established in-house, and the cells were revived. After the cells were stable, a sufficient number of cells were collected and 100 µL of the cell suspension was seeded into a 96-well plate. The next day, the example compounds with serially diluted concentrations were added. […] The plate was incubated for 1.5 hours (A549 WT and PARP2-KO cell lines) or 2 hours (PARP1-KO cell line). After removing the supernatant, 0.4 mM H2O2 was added and incubation was carried out for 10 minutes (A549 WT and PARP2-KO cell lines) or 1.5 mM H2O2 was added and incubation was carried out for 15 minutes (PARP1-KO cell line) to induce extensive cellular DNA damage. After removing the supernatant, the cells were fixed with 4% paraformaldehyde for 20 minutes, followed by treatment with 0.5% Triton X-100 for 20 minutes to increase the permeability of the cell membrane. After that, the cells were incubated with 3% BSA for 1 hour to prevent non-specific binding. […] The cell nuclei were stained for 30 minutes by adding 50 µL DAPI (invitrogen, R37606). After washing twice with PBS, images were acquired on OPERETTA CLS™ (PE) by scanning the cells under a 20x water objective lens in non-confocal mode, with 5 fields of view captured per well. […] The inhibition rate was calculated using the fluorescence values from the Max and Min wells, and the dose-response curve was fitted using the analysis software GraphPad Prism 5 to obtain the IC50 value of each compound for the enzyme activity.

PARP2 [3] = biological target: T2, PARP2; assay: DNA trapping capability of PARP2 (HTRF); assay type: biochemical
A549 PARP2-KO cell line = assay: Cellular PARylation inhibition, high-content imaging, PARP2-KO; assay type: cell-based; conditions: for IC50: Homo sapiens
PARP1 [4] = biological target: T1, PARP1; assay: DNA trapping capability of PARP1 (HTRF); assay type: biochemical
PARP11 = biological target: T3, PARP11 (Homo sapiens, UniProt Q9NR21); assay: Inhibition of PARP11 enzyme activity (chemiluminescent assay kit); assay type: biochemical
T3 construct: purchased BPS 80511
T3 sequence (Q9NR21 1-338): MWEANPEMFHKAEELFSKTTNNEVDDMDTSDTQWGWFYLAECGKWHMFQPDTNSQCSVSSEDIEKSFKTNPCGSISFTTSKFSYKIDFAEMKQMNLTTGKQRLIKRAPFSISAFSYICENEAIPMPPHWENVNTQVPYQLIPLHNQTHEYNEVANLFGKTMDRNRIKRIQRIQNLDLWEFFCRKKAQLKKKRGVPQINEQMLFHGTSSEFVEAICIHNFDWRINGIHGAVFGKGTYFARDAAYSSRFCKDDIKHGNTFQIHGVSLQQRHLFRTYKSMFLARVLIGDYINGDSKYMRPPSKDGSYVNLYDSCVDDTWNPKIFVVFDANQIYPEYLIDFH

[5] = tested on: MDA-MB-436 xenograft tumour; assay: Anti-tumour effect in MDA-MB-436 subcutaneous xenograft tumour mouse model; assay type: in vivo; conditions: same dose, MDA-MB-436 xenograft mice
Experimental: Example 4 was further verified in vivo. A subcutaneous xenograft tumour mouse model of the BRCA1-mutated MDA-MB-436 cell line was selected. Human breast cancer MDA-MB-436 cells (ATCC, HTB-130) were cultured in vitro in a monolayer, with the culture conditions of L-15 medium supplemented with 10% foetal bovine serum, 1% penicillin-streptomycin solution, and 0.01 mg/mL bovine insulin, and cultured at 37°C in a CO2-free incubator. The cells were routinely digested and passaged twice a week using trypsin-EDTA. When the cell confluency reached 80%-90%, the cells were harvested and counted, and 0.2 mL of 1 × 10^7 MDA-MB-436 cells were subcutaneously inoculated on the right back of each mouse (PBS : Matrigel = 1 : 1). When the mean tumour volume reached 152 mm^3, the mice were grouped for drug administration. The day of drug administration was set as Day 0. The tumour volume and the body weight of the mice were monitored twice a week, and the drug treatment lasted for 28 days.
The diameter of the tumour was measured with a vernier calliper. The tumour volume is calculated according to the following equation: V = 0.5a × b^2, where a and b represent the long and short diameters of the tumour, respectively. The tumour inhibition effect of the compound was evaluated by relative tumour shrinkage rate Reg%. Reg% reflects the rate of tumour volume reduction after treatment. Reg% = (V0-Vt)/V0×100%, where V0 is the tumour volume measured at the time of grouping for drug administration (i.e., d0), and Vt is the tumour volume measured at a certain time point.
The criteria for compound response in the mouse model were adapted from mRECIST (Modified Response Evaluation Criteria in Solid Tumours) (Gao et al, 2015), and are specifically defined as follows: [formula] • PR (Partial Response): BestResponse < −50% and BestAvgResponse < −20%; [formula] • SD (Stable Disease): BestResponse < 35% and BestAvgResponse < 30%; [formula] • PD (Progressive Disease): other cases; • ORR% is the sum of the proportions of Complete Response (CR) and Partial Response (PR).
Statistical analysis was performed using Prism software, including the mean value (Mean) and standard error of the mean (SEM) of the tumour volume at each time point for each group. For the statistical analysis of TV, the original TV data from each measurement were used to compare the differences between groups. Two-way ANOVA was applied to include the two factors, i.e., drug administration and time for analysis, followed by the Tukey's multiple comparisons test, wherein p < 0.05 was considered statistically significant.

PARP6 = biological target: T4, PARP6 (Homo sapiens, UniProt Q2NL67); assay: Inhibition of PARP6 enzyme activity (chemiluminescence); assay type: biochemical
T4 construct: purchased BPS 80506

[6] = Pharmacokinetic study of single administration in mice; assay type: in vivo; conditions: CD-1 mice
Experimental: Male CD-1 mice were used as test animals. The plasma drug concentrations of the compounds were determined and the pharmacokinetic parameters were evaluated after a single administration. Healthy adult male CD-1 mice were selected. The candidate compound was added to 10% DMSO, vortexed and sonicated. After complete dissolution, 30% PEG400 was added, followed by vortexing and sonication, and 60% double-distilled water was added to prepare a clear solution for later use. After the mice were intravenously injected at a dose of 2 mg/kg and orally administered at a dose of 10 mg/kg, whole blood was collected at 5 minutes, 15 minutes, 30 minutes, 1 hour, 2 hours, 4 hours, 8 hours, and 24 hours after administration to prepare plasma. After sample treatment, the drug concentration was analysed by LC-MS/MS method, and the pharmacokinetic parameters were calculated.

[7] = BRCA1-normal MDA-MB-231 cell line
[8] = MDA-MB-231, 168 h, BRCA1-normal, 7 days, read-out: MDA-MB-231 IC50
[9] = A549, PARylation at the cellular level, read-out: PARP2-KO IC50
[10] = PARylation at the cellular level
[11] = ratio relative to the PARP1 enzyme activity
[12] = male, mouse, plasma, IV, 2 mg/kg
[13] = male, mouse, plasma, PO, 10 mg/kg

T2 sequence (Q9UGN5 whole entry): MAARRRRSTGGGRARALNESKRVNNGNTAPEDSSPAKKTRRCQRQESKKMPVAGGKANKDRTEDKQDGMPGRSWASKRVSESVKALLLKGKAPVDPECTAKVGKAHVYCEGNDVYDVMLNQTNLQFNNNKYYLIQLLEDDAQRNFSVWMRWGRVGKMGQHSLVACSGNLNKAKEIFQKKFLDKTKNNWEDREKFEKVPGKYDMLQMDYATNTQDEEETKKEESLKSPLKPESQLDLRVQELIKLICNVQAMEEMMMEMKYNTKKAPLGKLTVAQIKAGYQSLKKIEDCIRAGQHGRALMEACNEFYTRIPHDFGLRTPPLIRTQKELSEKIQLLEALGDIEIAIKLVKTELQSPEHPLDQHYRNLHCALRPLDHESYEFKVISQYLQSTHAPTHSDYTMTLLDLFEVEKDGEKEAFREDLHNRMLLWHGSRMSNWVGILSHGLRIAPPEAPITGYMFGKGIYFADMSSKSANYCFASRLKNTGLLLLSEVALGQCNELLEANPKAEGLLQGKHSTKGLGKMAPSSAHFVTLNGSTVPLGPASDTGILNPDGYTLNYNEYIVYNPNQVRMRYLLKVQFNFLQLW
T1 sequence (P09874 whole entry): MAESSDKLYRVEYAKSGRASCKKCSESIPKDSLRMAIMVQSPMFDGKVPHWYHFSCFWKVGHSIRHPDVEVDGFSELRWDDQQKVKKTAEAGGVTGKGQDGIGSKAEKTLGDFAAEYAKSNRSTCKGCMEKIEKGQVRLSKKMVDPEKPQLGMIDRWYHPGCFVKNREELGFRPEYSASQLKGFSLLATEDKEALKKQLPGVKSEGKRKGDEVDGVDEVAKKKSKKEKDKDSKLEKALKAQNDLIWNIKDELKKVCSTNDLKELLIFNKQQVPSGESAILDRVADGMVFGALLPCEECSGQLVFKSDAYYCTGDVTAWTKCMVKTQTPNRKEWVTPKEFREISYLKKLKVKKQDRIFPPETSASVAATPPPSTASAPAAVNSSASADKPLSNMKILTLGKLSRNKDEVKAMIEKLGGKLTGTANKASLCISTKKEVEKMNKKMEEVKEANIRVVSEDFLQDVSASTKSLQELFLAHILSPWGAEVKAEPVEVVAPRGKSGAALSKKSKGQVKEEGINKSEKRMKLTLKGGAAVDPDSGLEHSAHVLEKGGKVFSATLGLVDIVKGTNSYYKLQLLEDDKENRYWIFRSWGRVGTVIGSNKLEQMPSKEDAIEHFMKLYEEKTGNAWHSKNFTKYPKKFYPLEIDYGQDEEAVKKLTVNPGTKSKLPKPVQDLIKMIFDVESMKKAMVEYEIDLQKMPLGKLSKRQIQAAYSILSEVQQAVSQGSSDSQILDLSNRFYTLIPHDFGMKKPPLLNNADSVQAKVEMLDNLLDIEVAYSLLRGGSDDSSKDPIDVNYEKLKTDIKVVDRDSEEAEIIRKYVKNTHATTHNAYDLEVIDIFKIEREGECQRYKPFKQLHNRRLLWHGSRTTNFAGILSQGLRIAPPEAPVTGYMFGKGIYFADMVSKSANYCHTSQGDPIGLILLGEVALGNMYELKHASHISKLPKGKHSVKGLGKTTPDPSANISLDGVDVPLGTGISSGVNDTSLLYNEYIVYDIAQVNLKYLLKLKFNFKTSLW
T4 sequence (Q2NL67 whole entry): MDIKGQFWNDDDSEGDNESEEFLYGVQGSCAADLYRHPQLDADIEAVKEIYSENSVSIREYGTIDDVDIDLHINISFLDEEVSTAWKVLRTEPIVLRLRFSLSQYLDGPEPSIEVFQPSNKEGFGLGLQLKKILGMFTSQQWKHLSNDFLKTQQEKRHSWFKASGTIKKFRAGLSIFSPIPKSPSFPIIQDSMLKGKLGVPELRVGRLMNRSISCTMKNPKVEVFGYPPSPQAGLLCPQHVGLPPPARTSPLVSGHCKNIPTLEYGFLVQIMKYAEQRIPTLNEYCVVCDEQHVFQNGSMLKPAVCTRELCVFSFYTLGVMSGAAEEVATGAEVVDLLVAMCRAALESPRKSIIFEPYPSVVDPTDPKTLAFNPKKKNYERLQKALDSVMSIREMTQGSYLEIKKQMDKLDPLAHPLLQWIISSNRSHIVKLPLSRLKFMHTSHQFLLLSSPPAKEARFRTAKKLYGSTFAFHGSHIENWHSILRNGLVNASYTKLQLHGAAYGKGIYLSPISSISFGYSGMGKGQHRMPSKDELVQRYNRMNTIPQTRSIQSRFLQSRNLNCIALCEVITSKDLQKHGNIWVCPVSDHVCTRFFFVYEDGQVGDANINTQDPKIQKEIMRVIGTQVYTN

| Structure (SMILES) | IC50 (MDA-MB-436) | BRCA1 mutation/WT selectivity fold (MDA-MB-436) | IC50 (PARP1 [1]) | PARP1/2 selectivity fold (PARP1 [1]) | IC50 (PARP2 [2]) | inhibition on cell proliferation at the highest concentration (MDA-MB-231; [7]) | IC50 (MDA-MB-231; [8]) | BRCA2 mutation/WT selectivity fold (DLD-1 BRCA2^-/-) | IC50 (DLD-1 BRCA2^-/-) | inhibition on the enzyme activity at the highest concentration (A549 PARP1-KO cell lines) | IC50 (A549 PARP1-KO cell lines) | inhibition on cell proliferation at the highest concentration (DLD-1 WT) | IC50 (DLD-1 WT) | IC50 (A549 WT) | EC50 (PARP2 [3]) | IC50 (A549 PARP2-KO cell line; [9]) | PARP1 KO/PARP2 KO selectivity fold (A549 PARP2-KO cell line; [10]) | EC50 (PARP1 [4]) | further results |
| --- | --- | --- | --- | --- | --- | --- | --- | --- | --- | --- | --- | --- | --- | --- | --- | --- | --- | --- | --- |
| CCc1c(N)c2ncc(CN3CCN(c4ccc(C(=O)NOC)nc4F)CC3)cc2[nH]c1=O [Example 2, 5-(4-((8-Amino-7-ethyl-6-oxo-5,6-dihydro-1,5-naphthyridin-3-yl)methyl)piperazin-1-yl)-6-fluoro-N-methoxypicolinamide] | 5.74 nM | >1,742 fold | 0.39 nM | 44 fold | 17 nM | no detectable inhibition | > 10000 nM | >1,162 fold | 8.62 nM | no detectable inhibition | > 40000 nM | no detectable inhibition | > 10000 nM | 10.5 nM | 338 nM | 61.7 nM | >648 fold | 3.73 nM | – |
| CCc1cc2ncc(CN3CCN(c4ccc(C(=O)NC)nc4)CC3)cc2[nH]c1=O [AZD5305, reference compound] | 1.94 nM | – | – | – | – | – | > 10000 nM | – | 2.12 nM | – | – | – | > 10000 nM | 2.2 nM | – | – | – | – | IC50 (PARP11; enzyme activity): 19.4 nM; PARP11 multiple vs PARP1 (PARP11; [11]): 46; tumour regression ([5]; FIG. 3): promoted tumour regression; ORR ([5]; treatment 28 days): 20%; IC50 (PARP6; enzyme activity): 8660 nM; PARP6 multiple vs PARP1 (PARP6; [11]): 20,619 |
| CCc1c(N)c2ncc(CN3CCN(c4ccc(C(=O)NC)nc4)CC3)cc2[nH]c1=O [Example 1, 5-(4-((8-Amino-7-ethyl-6-oxo-5,6-dihydro-1,5-naphthyridin-3-yl)methyl)piperazin-1-yl)-N-methylpicolinamide] | 16.4 nM | >608 fold | 0.49 nM | 108 fold | 52.8 nM | no detectable inhibition | > 10000 nM | >538 fold | 18.6 nM | – | 47700 nM | no detectable inhibition | > 10000 nM | 14.4 nM | 168 nM | – | 660 fold | 1.78 nM | Exposure inf ([6]; IV, 2 mg/kg): 38.222 µg·h/mL; Exposure last ([6]; IV, 2 mg/kg): 38.128 µg·h/mL; Exposure inf ([6]; PO, 10 mg/kg): 191.246 µg·h/mL; Exposure last ([6]; PO, 10 mg/kg): 189.56 µg·h/mL; Peak concentration ([6]; PO, 10 mg/kg): 15700 ng/mL; Time to peak ([6]; PO, 10 mg/kg): 2 h; clearance [6, 12]: 0.872 mL/min/kg; half-life [6, 12]: 2.81 h; Vd ([6]; male, mouse, plasma, IV, 2 mg/kg, read-out: Apparent volume of distribution): 0.218 L/kg; bioavailability [6, 13]: 100%; half-life [6, 13]: 3.51 h; IC50 (A549 PARP2-KO cell line; A549, read-out: PARP2-KO IC50): 72.2 nM |
| CCc1c(N)c2ncc(CN3CCN(c4ccc(C(=O)NC)nc4F)CC3)cc2[nH]c1=O [Example 3, 5-(4-((8-Amino-7-ethyl-6-oxo-5,6-dihydro-1,5-naphthyridin-3-yl)methyl)piperazin-1-yl)-6-fluoro-N-methylpicolinamide] | 1.27 nM | 5,828 fold | 0.41 nM | 21 fold | 8.7 nM | – | 7400 nM | >1,972 fold | 5.07 nM | no detectable inhibition | > 40000 nM | no detectable inhibition | > 10000 nM | 5.9 nM | 249 nM | 16.2 nM | >2468 fold | 3.87 nM | IC50 (MDA-MB-231; BRCA1-normal MDA-MB-231 cell line, read-out: IC50): 7400 nM; PARP1/2 selectivity fold (PARP1 [4]): 64 fold |
